Assay results from patent US20210186905A1, “ENHANCING T-CELL FUNCTION AND TREATING A T-CELL DYSFUNCTIONAL DISORDER WITH A COMBINATION OF AN LSD INHIBITOR AND A PD-1 BINDING ANTAGONIST” (EpiAxis Therapeutic Pty Ltd, priority 2017, published 2021).
“Also recorded” adds a separate entry of the source. Where a name gives a salt, the structure may show the parent alone.

Tested on: CSV, LSD1p, SNAI1
Assay: Immunofluorescence of cancer cells from primary tumor micro-environment, mesenchymal CTC signature panel
Type: in vivo, mouse
Details: cancer cells from primary TME; % change relative to vehicle control
Procedure: FIG. 2 is a graphical and photographic representation showing the efficacy of dual phenelzine sulfate (phenelzine) and anti-PD1 antibody (PD1) therapy on circulating tumor cells (CTCs) and cancer stem cells (CSC) as well as tumor burden. A. Statistics of tumor volumes on day 15 post-treatment. A Mann-Whitney non-parametric t-test was used to compare control vs other groups (*p<0.02, **p<0.008). Group A=Control, Group C: PD1 (10 mg/kg), Group D: Phenelzine (40 mg/kg), Group F: PD1+Phenelzine. Illustration of the treatment protocol is also shown. […] Representative images for each dataset are shown. […] C. […] (a) Representative images for each dataset are shown. (b) Graph represents the TCFI values for CD133 TNFI for ALDH1A and TFI for ABCB5 measured using ImageJ to select the nucleus/cytoplasm minus background (n>20 individual cells, Group A=Control, Group C: PD1 (10 mg/kg), Group D: Phenelzine (40 mg/kg), Group F: PD1+Phenelzine).
FIG. 11 is a photographic and graphical representation showing triple therapy efficacy on CTC/CSC and tumor burden. […] (b) Graph represents the TCFI values for CD133 TNFI for ALDH1A and TFI for ABCB5 measured using ImageJ to select the nucleus/cytoplasm minus background (n>20 individual cells, Group A=Control, Group B: Abraxane (30 mg/kg), Group C: anti-PD1 (10 mg/kg), Group D: Phenelzine (40 mg/kg), Group E: Abraxane+PD1, Group F: PD1+Phenelzine, Group G: Abraxane+Phenelzine, Group H: Triple Therapy). […]
A total of 2×10^5 cells were injected per mouse into mammary gland in 50 μL of phosphate buffered saline (PBS). […] Tumors were measured using calipers and the tumor volumes (mm3) were calculated using the formula (length×width2)/2. ? arvested cells from primary tumors where then cytospun ? -treated with poly-1-lysine and fixed then stored in PBS for IFA Microscopy Analysis. […] Digital images were analysed using ImageJ software (ImageJ, NIH, Bethesda, Md., USA) to determine the either the Total Nuclear Fluorescent Intensity (TNFI), the Total Cytoplasmic Fluorescent Intensity (TCFI) or total Fluorescent Intensity (TFI).

Question: What does the source list for `NNCCc1ccccc1` (racemic) [phenelzine sulfate, (±)-2-phenylethylhydrazine]?
Answer: SNAI1 expression: strong inhibition; also recorded: stronger inhibition; expression of CSV: strong inhibition; also recorded: stronger inhibition; nuclear expression of LSD1: strong inhibition; also recorded: stronger inhibition
